Reference: PubChem BioAssay AID588846 (Broad Institute, 2011)
Activity calls are given as the source filed them. The rule behind the calls is not given here.

Tested on: not listed separately
Assay: cytotoxicity in control HMLE_shGFP mammary epithelial cells, dose response, counter-screen for breast cancer stem cell killers, cell-based, CellTiter-Glo luminescence, dry powder, set 2 (AID 588846)
Conditions: HMLE_shGFP viability, CellTiter-Glo luminescence, 72 h; at 32 µM (top of the series)

Row | SMILES | viability fraction
1 | O=C(NC1CCCC1)c1ccc(COc2ccccc2)o1 | 95.7% (inactive)
2 | O=C(/C=C/c1ccc(-c2ccccc2)cc1)NC1=NCCS1 | 13.7% (inactive)
3 | O=C(/C=C/c1ccc(Cl)c(Cl)c1)NC1=NCCS1 | 22.2% (inactive)
4 | CC(C)c1ccc(/C=C/C(=O)NC2=NCCS2)cc1 | 14% (inactive)
5 | CCc1ccc(/C=C/C(=O)NC2=NCCS2)cc1 | 92.9% (inactive)
6 | Cc1csc(NC(=O)c2ccc(CNc3ccccn3)o2)n1 | 80.2% (inactive)
7 | Cc1ccc(/C=C/C(=O)NC2=NCCS2)cc1 | 88.1% (inactive)

Tested on: HMLE_shGFP viability, CellTiter-Glo luminescence, 72 h
Assay: as above
Conditions: not given

Row | SMILES | AC50 [µM]
8 | COc1ccc(/C=C/C(=O)NC2=NCCS2)c(OC)c1 | 30
9 | Cc1csc(NC(=O)c2ccc(COc3cccc(F)c3)o2)n1 | 4.4
10 | Cc1csc(NC(=O)c2ccc(COc3ccccc3F)o2)n1 | 0.36
